{
  "source": "patent US20220160716A1",
  "about": "(SORBONNE UNIVERSITE, priority 2019, published 2022)",
  "key": {"ABCB4-I490T [1]": {"biological_target": "T1, ABCB4-I490T (Homo sapiens, UniProt P21439, I490T)", "T1 sequence (P21439 1-1279 isoform P21439-2 I490T)": "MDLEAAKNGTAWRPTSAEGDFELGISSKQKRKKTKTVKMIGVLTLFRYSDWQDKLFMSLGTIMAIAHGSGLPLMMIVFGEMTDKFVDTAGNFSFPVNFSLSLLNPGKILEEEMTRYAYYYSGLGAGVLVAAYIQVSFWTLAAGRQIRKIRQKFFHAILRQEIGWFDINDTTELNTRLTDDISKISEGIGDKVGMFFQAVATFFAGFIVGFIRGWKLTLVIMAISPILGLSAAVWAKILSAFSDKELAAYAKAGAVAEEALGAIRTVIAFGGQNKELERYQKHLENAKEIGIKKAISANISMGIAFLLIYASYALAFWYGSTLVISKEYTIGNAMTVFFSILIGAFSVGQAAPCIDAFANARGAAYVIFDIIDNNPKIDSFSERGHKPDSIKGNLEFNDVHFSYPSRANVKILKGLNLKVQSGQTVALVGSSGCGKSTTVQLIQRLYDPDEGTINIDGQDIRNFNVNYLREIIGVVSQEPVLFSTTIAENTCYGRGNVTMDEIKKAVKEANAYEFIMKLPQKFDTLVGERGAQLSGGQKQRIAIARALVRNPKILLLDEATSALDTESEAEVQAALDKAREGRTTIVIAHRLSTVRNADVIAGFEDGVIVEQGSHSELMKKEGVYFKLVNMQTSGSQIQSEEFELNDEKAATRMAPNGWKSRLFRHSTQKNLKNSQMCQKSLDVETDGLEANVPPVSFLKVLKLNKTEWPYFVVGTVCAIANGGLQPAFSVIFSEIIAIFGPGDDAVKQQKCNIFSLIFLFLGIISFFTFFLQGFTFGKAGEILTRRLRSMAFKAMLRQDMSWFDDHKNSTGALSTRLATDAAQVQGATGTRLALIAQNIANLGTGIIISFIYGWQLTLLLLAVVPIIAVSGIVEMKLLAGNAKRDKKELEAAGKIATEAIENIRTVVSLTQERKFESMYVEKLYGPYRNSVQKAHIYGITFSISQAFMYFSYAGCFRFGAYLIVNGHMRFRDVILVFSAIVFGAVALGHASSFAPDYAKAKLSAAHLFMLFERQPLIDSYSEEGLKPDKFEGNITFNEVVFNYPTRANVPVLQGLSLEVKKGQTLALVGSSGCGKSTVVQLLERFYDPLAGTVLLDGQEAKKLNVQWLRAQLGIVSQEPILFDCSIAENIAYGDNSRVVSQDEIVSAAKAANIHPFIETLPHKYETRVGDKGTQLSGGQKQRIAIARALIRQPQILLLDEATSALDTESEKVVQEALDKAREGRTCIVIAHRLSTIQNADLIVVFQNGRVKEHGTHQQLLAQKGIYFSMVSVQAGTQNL", "assay": "Canalicular localisation of ABCB4-I490T by indirect immunofluorescence in HepG2 cells", "format": "cell-based", "design": "The subcloning of wild type (WT) ABCB4, isoform A (NM_000443.3), into pcDNA3 vector has been described; expressed in transfected cells; host or cells: HepG2 (immunofluorescence)", "conditions": "25 μM", "procedure": "For indirect immunofluorescence, HepG2 cells were grown on glass coverslips and after transfection and treatments, they were fixed and permeabilized during 1 min at −20° C. in ice-cold methanol. Then ABCB4 and ABCC2 were immunolabelled using the mouse monoclonal P3II-26 (IgG2b) and M2I-4 (IgG1) antibodies (Enzo Life Sciences), respectively. AlexaFluor® 555 and AlexaFluor® 488 conjugated isotype-specific secondary antibodies (Thermo Fisher Scientific) and Hoechst 33342 (Thermo Fisher Scientific) were used to label ABCB4, ABCC2 and nuclei, respectively. Images were acquired using an IX83 inverted fluorescence microscope from Olympus (Rungis, France), equipped with a UPLSAPO 60XS2 silicone immersion objective and a Hamamatsu ORCA Flash4.0 digital CMOS camera, and analysed using Olympus CellSens Dimension Desktop version 1.16 and Adobe Photoshop version 8.0.1. For each experiment, all images were acquired with constant settings (acquisition time and correction of signal intensities)."}, "CLK1": {"biological_target": "T2, CLK1 (Homo sapiens, UniProt P49759)", "T2 construct": "made in house", "assay": "Protein kinase catalytic activity assay, CLK1", "format": "biochemical", "conditions": "read-out: IC50 of protein kinases, CLK1"}, "ABCB4-L556R": {"biological_target": "ABCB4-L556R (Homo sapiens, UniProt P21439, L556R)", "sequence (P21439 1-1279 isoform P21439-2 L556R)": "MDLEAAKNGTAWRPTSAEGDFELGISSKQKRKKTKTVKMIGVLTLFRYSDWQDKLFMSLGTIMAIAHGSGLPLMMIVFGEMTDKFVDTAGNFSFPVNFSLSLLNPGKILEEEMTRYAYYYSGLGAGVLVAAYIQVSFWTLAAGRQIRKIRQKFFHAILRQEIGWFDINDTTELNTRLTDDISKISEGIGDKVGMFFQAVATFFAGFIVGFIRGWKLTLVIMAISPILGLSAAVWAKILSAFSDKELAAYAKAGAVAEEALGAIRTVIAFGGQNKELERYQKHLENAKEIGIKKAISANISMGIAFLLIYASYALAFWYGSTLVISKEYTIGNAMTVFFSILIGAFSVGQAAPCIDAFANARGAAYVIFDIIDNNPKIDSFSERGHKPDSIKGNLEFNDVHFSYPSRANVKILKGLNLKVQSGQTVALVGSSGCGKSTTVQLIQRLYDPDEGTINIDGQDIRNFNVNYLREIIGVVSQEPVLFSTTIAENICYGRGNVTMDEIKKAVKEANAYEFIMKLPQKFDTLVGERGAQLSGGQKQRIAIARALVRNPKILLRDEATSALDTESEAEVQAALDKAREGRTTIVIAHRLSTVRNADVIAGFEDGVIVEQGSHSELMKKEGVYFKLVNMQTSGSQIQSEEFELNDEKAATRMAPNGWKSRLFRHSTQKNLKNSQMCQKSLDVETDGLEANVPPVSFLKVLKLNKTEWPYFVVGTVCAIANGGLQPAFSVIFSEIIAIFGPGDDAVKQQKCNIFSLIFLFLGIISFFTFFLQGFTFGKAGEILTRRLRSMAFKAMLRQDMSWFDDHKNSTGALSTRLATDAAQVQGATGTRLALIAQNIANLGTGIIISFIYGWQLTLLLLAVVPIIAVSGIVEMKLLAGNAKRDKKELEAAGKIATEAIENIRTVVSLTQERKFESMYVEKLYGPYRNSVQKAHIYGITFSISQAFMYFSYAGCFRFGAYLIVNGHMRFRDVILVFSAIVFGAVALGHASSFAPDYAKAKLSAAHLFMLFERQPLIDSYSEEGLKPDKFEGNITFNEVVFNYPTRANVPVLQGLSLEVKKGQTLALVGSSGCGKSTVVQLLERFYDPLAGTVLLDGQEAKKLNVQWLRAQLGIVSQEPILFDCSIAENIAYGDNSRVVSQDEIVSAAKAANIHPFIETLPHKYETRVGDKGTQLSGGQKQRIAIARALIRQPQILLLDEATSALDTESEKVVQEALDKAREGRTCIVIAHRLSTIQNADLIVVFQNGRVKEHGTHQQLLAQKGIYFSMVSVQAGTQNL", "assay": "ABCB4-mediated phosphatidylcholine secretion, HEK cells expressing ABCB4-L556R", "format": "cell-based", "design": "The subcloning of wild type (WT) ABCB4, isoform A (NM_000443.3), into pcDNA3 vector has been described; expressed in transfected cells; host or cells: HEK-293 (immunoblot, PC secretion)", "conditions": "25 μM", "procedure": "(§1) Cyclosporin A (CsA) was from Santa Cruz Biotechnologies (Dallas, Tex.). […] Each compound was solubilized in dimethylsulfoxide (DMSO) as 1000× concentrated stock solutions in order to treat cells with 5 μM to 100 μM final concentrations, using DMSO as control vehicle at the same dilution (0.1% DMSO for all conditions). The cells were treated 24 hours post-transfection with these drugs during 16 hours, except for the viability assays for which cells were treated during three days. After drug treatment, cells were used for immunoanalyses, cell viability assays or PC secretion assays.\n(§2) HEK cells were seeded in 0.01% poly-L-lysine (Sigma) pre-coated 6-well plates of 10 cm^2 area per well (1.3×10^6 cells per well). After transient transfection of the empty vector (control), plasmids encoding ABCB4-WT or its variants, cells were incubated during 24 hours at 37° C. in serum-free medium supplemented with 0.5 mM sodium taurocholate (Sigma) and 0.02% fatty acid-free bovine serum albumin (Sigma). Then, the secreted PC was quantified from the collected media using a fluoro-enzymatic assay previously described (12). Each condition was analysed in triplicate, after background subtraction, and results were normalized to the expression levels of ABCB4 determined by immunoblots of the corresponding cell lysates."}, "ABCB4-I541F [2]": {"biological_target": "T3, ABCB4-I541F (Homo sapiens, UniProt P21439, I541F)", "T3 sequence (P21439 1-1279 isoform P21439-2 I541F)": "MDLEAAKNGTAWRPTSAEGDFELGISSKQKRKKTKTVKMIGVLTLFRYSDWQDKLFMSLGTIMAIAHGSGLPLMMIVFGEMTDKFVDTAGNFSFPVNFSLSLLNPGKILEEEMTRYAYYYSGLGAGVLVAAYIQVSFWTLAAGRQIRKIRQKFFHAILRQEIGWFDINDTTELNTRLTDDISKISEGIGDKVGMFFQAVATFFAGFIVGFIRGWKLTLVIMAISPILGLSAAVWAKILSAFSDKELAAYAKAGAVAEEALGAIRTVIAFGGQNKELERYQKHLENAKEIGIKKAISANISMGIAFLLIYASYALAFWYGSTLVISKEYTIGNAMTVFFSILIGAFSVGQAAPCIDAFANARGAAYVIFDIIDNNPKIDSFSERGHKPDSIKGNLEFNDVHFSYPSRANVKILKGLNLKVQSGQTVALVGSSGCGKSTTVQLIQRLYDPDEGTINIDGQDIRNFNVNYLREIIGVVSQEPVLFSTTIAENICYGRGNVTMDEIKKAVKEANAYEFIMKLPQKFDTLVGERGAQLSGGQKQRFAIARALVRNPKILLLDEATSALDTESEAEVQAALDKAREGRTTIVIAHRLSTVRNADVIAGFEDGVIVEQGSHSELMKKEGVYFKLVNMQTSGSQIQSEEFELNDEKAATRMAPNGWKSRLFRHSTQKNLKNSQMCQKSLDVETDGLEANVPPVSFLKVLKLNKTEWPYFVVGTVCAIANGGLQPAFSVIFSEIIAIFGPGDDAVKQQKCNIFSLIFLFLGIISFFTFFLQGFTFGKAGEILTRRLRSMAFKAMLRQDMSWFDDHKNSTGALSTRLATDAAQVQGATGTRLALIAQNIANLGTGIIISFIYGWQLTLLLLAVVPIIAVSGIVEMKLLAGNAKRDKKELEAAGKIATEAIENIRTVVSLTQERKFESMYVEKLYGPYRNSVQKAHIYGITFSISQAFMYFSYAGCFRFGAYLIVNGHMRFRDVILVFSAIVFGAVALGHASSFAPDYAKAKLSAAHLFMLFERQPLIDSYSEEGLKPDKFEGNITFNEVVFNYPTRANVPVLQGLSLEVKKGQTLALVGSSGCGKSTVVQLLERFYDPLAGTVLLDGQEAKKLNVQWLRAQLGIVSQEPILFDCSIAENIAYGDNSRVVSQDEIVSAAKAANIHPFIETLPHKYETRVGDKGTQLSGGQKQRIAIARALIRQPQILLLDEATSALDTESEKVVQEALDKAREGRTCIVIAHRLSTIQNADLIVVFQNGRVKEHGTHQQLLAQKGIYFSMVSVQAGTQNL", "assay": "ABCB4-mediated phosphatidylcholine secretion, HEK cells expressing ABCB4-I541F", "format": "cell-based", "design": "The subcloning of wild type (WT) ABCB4, isoform A (NM_000443.3), into pcDNA3 vector has been described; expressed in transfected cells; host or cells: HEK-293 (immunoblot, PC secretion)", "conditions": "25 μM, maximal activity = cells expressing ABCB4-WT, vehicle 7.1±0.8%", "procedure": "as §1, §2"}, "CDK9/T": {"biological_target": "T4, CDK9/T (Homo sapiens, UniProt P50750)", "T4 construct": "made in house", "assay": "Protein kinase catalytic activity assay, CDK9/cyclin T", "format": "biochemical", "conditions": "activator cyclin T; read-out: IC50 of protein kinases, CDK9/T"}, "CK1": {"biological_target": "CK1", "assay": "Protein kinase catalytic activity assay, CK1", "format": "biochemical", "conditions": "read-out: IC50 of protein kinases, CK1"}, "ABCB4-I541F [3]": {"biological_target": "T3, ABCB4-I541F", "assay": "Maturation of ABCB4-I541F by immunoblot in HEK cells", "format": "cell-based", "design": "The subcloning of wild type (WT) ABCB4, isoform A (NM_000443.3), into pcDNA3 vector has been described; expressed in transfected cells; host or cells: HEK-293 (immunoblot, PC secretion)", "conditions": "for maturation (mature form) of ABCB4-I541F: HEK cells, 100 μM, 16 hours, immunoblot; for correction of ABCB4-I541F maturation: HEK cells, 5, 10 and 25 μM", "procedure": "as §1\nWestern blots and indirect immunofluorescence were performed as previously described (2, 12). […] Signals were detected with ECL prime western blotting detection reagent (GE Healthcare, Velizy-Villacoublay, France) and quantified in the linear range of detection using ImageJ 1.50i software (U.S. National Institutes of Health, Bethesda, Md.)."}, "GSK3": {"biological_target": "GSK3 (Homo sapiens, UniProt P49841)", "sequence (P49841 whole entry)": "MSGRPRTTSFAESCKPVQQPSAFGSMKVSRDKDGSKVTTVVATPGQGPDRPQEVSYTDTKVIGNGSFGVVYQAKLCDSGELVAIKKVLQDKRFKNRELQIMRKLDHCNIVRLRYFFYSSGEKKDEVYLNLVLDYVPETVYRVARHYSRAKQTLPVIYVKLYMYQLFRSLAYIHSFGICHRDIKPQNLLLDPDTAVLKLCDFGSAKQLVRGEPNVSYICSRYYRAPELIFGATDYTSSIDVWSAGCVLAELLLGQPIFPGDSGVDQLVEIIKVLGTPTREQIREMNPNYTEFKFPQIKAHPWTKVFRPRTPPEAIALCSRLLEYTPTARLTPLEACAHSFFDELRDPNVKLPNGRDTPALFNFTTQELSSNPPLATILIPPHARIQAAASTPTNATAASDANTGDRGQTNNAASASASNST", "assay": "Protein kinase catalytic activity assay, GSK3", "format": "biochemical", "conditions": "read-out: IC50 of protein kinases, GSK3"}, "ABCB4-I490T [4]": {"biological_target": "T1, ABCB4-I490T", "assay": "ABCB4-mediated phosphatidylcholine secretion, HEK cells expressing ABCB4-I490T", "format": "cell-based", "design": "The subcloning of wild type (WT) ABCB4, isoform A (NM_000443.3), into pcDNA3 vector has been described; expressed in transfected cells; host or cells: HEK-293 (immunoblot, PC secretion)", "conditions": "25 μM", "procedure": "as §1, §2"}},
  "note": "Entries after “also recorded” stand apart in the source; their conditions may differ.",
  "data": [
    {"smiles": "CC[C@@H](Nc1nc(NCc2cccc(F)c2)c2ncn(C3CCCC3)c2n1)C(=O)O", "note": "[MRT2-235]", "values": [
      {"measurement": "relocalisation of ABCB4-I490T at bile canaliculi", "setting": "ABCB4-I490T [1]", "result": "partially relocalised at bile canaliculi"},
      {"measurement": "IC50", "setting": "CLK1", "result": 11, "unit": "µM"},
      {"measurement": "PC secretion residual activity of ABCB4-L556R", "setting": "ABCB4-L556R", "result": "significant increase of the residual activity"},
      {"measurement": "PC secretion activity of ABCB4-I541F (residual activity)", "setting": "ABCB4-I541F [2]", "result": "19.0±3.4", "unit": "%"},
      {"measurement": "IC50", "setting": "CDK9/T", "result": 7, "unit": "µM"},
      {"measurement": "IC50", "setting": "CK1", "result": 7, "unit": "µM"},
      {"measurement": "maturation (mature form) of ABCB4-I541F", "setting": "ABCB4-I541F [3]", "result": "significantly increase the expression of a mature form of ABCB4-I541F; also recorded: significant rescue of the maturation"},
      {"measurement": "correction of ABCB4-I541F maturation", "setting": "ABCB4-I541F [3]", "result": "dose-dependent correction of ABCB4-I541F maturation"},
      {"measurement": "IC50", "setting": "GSK3", "result": "> 10", "unit": "µM"},
      {"measurement": "PC secretion residual activity of ABCB4-I490T", "setting": "ABCB4-I490T [4]", "result": "significant increase of the residual activity"}
    ]},
    {"smiles": "CC[C@@H](Nc1nc(NCc2cccc(Cl)c2)c2ncn(C3CCCC3)c2n1)C(=O)O", "note": "[MRT2-237]", "values": [
      {"measurement": "relocalisation of ABCB4-I490T at bile canaliculi", "setting": "ABCB4-I490T [1]", "result": "partially relocalised at bile canaliculi"},
      {"measurement": "IC50", "setting": "CLK1", "result": 8.5, "unit": "µM"},
      {"measurement": "PC secretion residual activity of ABCB4-L556R", "setting": "ABCB4-L556R", "result": "significant increase of the residual activity"},
      {"measurement": "PC secretion activity of ABCB4-I541F (residual activity)", "setting": "ABCB4-I541F [2]", "result": "13.0±3.5", "unit": "%"},
      {"measurement": "IC50", "setting": "CDK9/T", "result": 9, "unit": "µM"},
      {"measurement": "IC50", "setting": "CK1", "result": 3.33, "unit": "µM"},
      {"measurement": "maturation (mature form) of ABCB4-I541F", "setting": "ABCB4-I541F [3]", "result": "significantly increase the expression of a mature form of ABCB4-I541F; also recorded: significant rescue of the maturation"},
      {"measurement": "correction of ABCB4-I541F maturation", "setting": "ABCB4-I541F [3]", "result": "dose-dependent correction of ABCB4-I541F maturation"},
      {"measurement": "IC50", "setting": "GSK3", "result": "> 10", "unit": "µM"},
      {"measurement": "PC secretion residual activity of ABCB4-I490T", "setting": "ABCB4-I490T [4]", "result": "significant increase of the residual activity"}
    ]},
    {"smiles": "CC[C@@H](Nc1nc(NCc2ccc(Cl)c(F)c2)c2ncn(C3CCCC3)c2n1)C(=O)O", "note": "[MRT2-243]", "values": [
      {"measurement": "relocalisation of ABCB4-I490T at bile canaliculi", "setting": "ABCB4-I490T [1]", "result": "partially relocalised at bile canaliculi"},
      {"measurement": "IC50", "setting": "CLK1", "result": 20, "unit": "µM"},
      {"measurement": "PC secretion residual activity of ABCB4-L556R", "setting": "ABCB4-L556R", "result": "significant increase of the residual activity"},
      {"measurement": "PC secretion activity of ABCB4-I541F (residual activity)", "setting": "ABCB4-I541F [2]", "result": "22.5±6.2", "unit": "%"},
      {"measurement": "IC50", "setting": "CDK9/T", "result": 5, "unit": "µM"},
      {"measurement": "IC50", "setting": "CK1", "result": 6.1, "unit": "µM"},
      {"measurement": "maturation (mature form) of ABCB4-I541F", "setting": "ABCB4-I541F [3]", "result": "significantly increase the expression of a mature form of ABCB4-I541F; also recorded: significant rescue of the maturation"},
      {"measurement": "correction of ABCB4-I541F maturation", "setting": "ABCB4-I541F [3]", "result": "dose-dependent correction of ABCB4-I541F maturation"},
      {"measurement": "IC50", "setting": "GSK3", "result": "> 10", "unit": "µM"},
      {"measurement": "PC secretion residual activity of ABCB4-I490T", "setting": "ABCB4-I490T [4]", "result": "significant increase of the residual activity"}
    ]}
  ]
}
